Data as given in article PMC7215599, “Synthesis, Antitumor Evaluation, Molecular Modeling and Quantitative Structure–Activity Relationship (QSAR) of Novel 2-[(4-Amino-6-N-substituted-1,3,5-triazin-2-yl)methylthio]-4-chloro-5-methyl-N-(1H-benzo[d]imidazol-2(3H)-ylidene)Benzenesulfonamides” (International Journal of Molecular Sciences, 2020).

Columns and labels:
[1] = system: HCT-116 (colon cancer) cell line; assay: MTT cell viability assay, HCT-116; format: cell-based, human; conditions: for IC50: MTT, 72 h, 1-100 µM, mean ± SD
Procedure: (§1) Compounds 6–49 were evaluated in vitro for their effects on the viability of the three human cancer cell lines: HCT-116 (colon cancer), MCF-7 (breast cancer) and HeLa (cervical cancer) as well as the non-cancerous keratinocyte cell line (HaCaT). The concentration required for 50% inhibition of cell viability IC50 was calculated and compared with the reference drug cisplatin, the results are shown in Table 1.
(§2) Cell lines: colon cancer (HCT-116), breast cancer (MCF-7), cervical cancer (HeLa), the human keratinocyte cell line (HaCaT); NT—not tested; IC50 was measured at concentrations 1, 10, 25, 50, and 100 µM. IC50 values are expressed as the mean ± SD of at last three independent experiments.
(§3) All chemicals, if not stated otherwise, were obtained from Sigma–Aldrich (St. Louis, MO, USA). The HCT-116 cell lines was purchased from ATCC (ATCC-No: CCL-247), while the MCF-7, HeLa and HaCaT cell lines were purchased from Cell Lines Services (Eppelheim, Germany). Cells were cultured in Dulbecco’s modified Eagle’s medium (DMEM) supplemented with 10% fetal bovine serum, 2 mM glutamine, 100 units/mL penicillin, and 100 µg/mL streptomycin. Cultures were maintained in a humidified atmosphere with 5% carbon dioxide at 37 °C in an incubator (Heraceus, HeraCell).
(§4) Cell viability was examined using the MTT (3-(4,5-dimethylthiazol-2-yl)-2,5-diphenyltetrazolium bromide) assay. Cells were seeded in 96-well plates at a density of 5 × 10^3 cells/well and treated for 72 h with the tested compounds in the concentration range of 1–100 µM (1, 10, 25, 50 and 100 µM). Then, MTT (0.5 mg/mL) was added to the medium and cells were further incubated for 2 h at 37 °C. In the next stage, cells were lysed with DMSO and the absorbance of the formazan solution was measured at 550 nm with a plate reader (1420 multilabel counter, Victor, Jügesheim, Germany). The experiment was performed in triplicate. Values are expressed as the mean ± SD of at least three independent experiments. Cisplatin was used as a positive control.

[2] = system: HeLa (cervical cancer) cell line; assay: MTT cell viability assay, HeLa; format: cell-based, human; conditions: for IC50: 72 h, MTT, 1-100 µM, mean ± SD
Procedure: as §1, §2, §3, §4

[3] = system: HaCaT (non-cancerous keratinocyte cell line); assay: MTT cell viability assay, HaCaT; format: cell-based; conditions: Homo sapiens, 72 h, 1-100 µM, mean ± SD, non-cancerous cells
Procedure: as §1, §2, §3, §4

[4] = system: MCF-7 (breast cancer) cell line; assay: MTT cell viability assay, MCF-7; format: cell-based, human; conditions: MTT, 72 h, 1-100 µM, mean ± SD
Procedure: as §1, §2, §3, §4

SMILES	IC50 ([1]; Homo sapiens, HCT-116, 72 h)	IC50 ([2]; Homo sapiens, HeLa)	IC50 ([4]; Homo sapiens, MCF7, 72 h)	IC50 [1]	IC50 [2]	IC50 [4]	IC50 [3]	selectivity ratio HaCaT/HCT-116 ([1]; ratio of IC50 values)	selectivity ratio HaCaT/HeLa ([2]; ratio of IC50 values)
Cc1cc(S(=O)(=O)N=c2[nH]c3ccccc3[nH]2)c(SCc2nc(N)nc(Nc3ccc(Cl)cc3)n2)cc1Cl [Compound 13, 2-[{4-Amino-6-[(4-chlorophenyl)amino]-1,3,5-triazin-2-yl}metylthio]-N-(1H-benzo[d]imidazol-2(3H)-ylidene)-4-chloro-5-methylbenzenesulfonamide]	32 ± 1 µM	35 ± 1 µM	24 ± 1 µM	–	–	–	41 ± 2 µM	–	–
COc1ccc(Nc2nc(N)nc(CSc3cc(Cl)c(C)cc3S(=O)(=O)N=c3[nH]c4ccccc4[nH]3)n2)cc1 [Compound 14, 2-[{4-Amino-6-[(4-methoxyphenyl)amino]-1,3,5-triazin-2-yl}metylthio]-N-(1H-benzo[d]imidazol-2(3H)-ylidene)-4-chloro-5-methylbenzenesulfonamide]	54 ± 2 µM	56 ± 2 µM	41 ± 1 µM	–	–	–	65 ± 3 µM	–	–
Cc1cc(S(=O)(=O)N=c2[nH]c3ccccc3[nH]2)c(SCc2nc(N)nc(N(C)c3ccccc3)n2)cc1Cl [Compound 16, 2-[{4-Amino-6-[methyl(phenyl)amino]-1,3,5-triazin-2-yl}metylthio]-N-(1H-benzo[d]imidazol-2(3H)-ylidene)-4-chloro-5-methylbenzenesulfonamide]	33 ± 1 µM	33 ± 1 µM	32 ± 1 µM	–	–	–	45 ± 2 µM	–	–
Cc1cc(S(=O)(=O)N=c2[nH]c3ccccc3[nH]2)c(SCc2nc(N)nc(N(C)c3ccc(Cl)cc3)n2)cc1Cl [Compound 17, 2-[{4-Amino-6-[(4-chlorophenyl)(methyl)amino]-1,3,5-triazin-2-yl}methylthio]-N-(1H-benzo[d]imidazol-2(3H)-ylidene)-4-chloro-5-methylbenzenesulfonamide]	29 ± 1 µM	30 ± 1 µM	31 ± 1 µM	–	–	–	43 ± 2 µM	–	–
Cc1cc(S(=O)(=O)N=c2[nH]c3ccccc3[nH]2)c(SCc2nc(N)nc(N3CCN(c4ccccc4F)CC3)n2)cc1Cl [Compound 21, 2-[{4-Amino-6-[4-(2-fluorophenyl)piperazin-1-yl]-1,3,5-triazin-2-yl}metylthio]-N-(1H-benzo[d]imidazol-2(3H)-ylidene)-4-chloro-5-methylbenzenesulfonamide]	15 ± 1 µM	17 ± 0.5 µM	24 ± 1 µM	–	–	–	32 ± 1 µM	–	–
Cc1cc(S(=O)(=O)N=c2[nH]c3ccccc3[nH]2)c(SCc2nc(N)nc(N3CCN(c4ccc(C(F)(F)F)cc4)CC3)n2)cc1Cl [Compound 22, 2-{[4-Amino-6-{4-[4-(trifluoromethyl)phenyl]piperazin-1-yl}-1,3,5-triazin-2-yl]methylthio}-N-(1H-benzo[d]imidazol-2(3H)-ylidene)-4-chloro-5-methylbenzenesulfonamide]	7 to 11 µM	11 to 18 µM	15 to 24 µM	11 ± 0.5 µM	11 ± 0.5 µM	24 ± 1 µM	34 ± 1 µM	3.1	3.1
Cc1cc(S(=O)(=O)N=c2[nH]c3ccccc3[nH]2)c(SCc2nc(N)nc(N3CCN(c4cccc(Cl)c4)CC3)n2)cc1Cl [Compound 24, 2-[{4-Amino-6-[4-(3-chlorophenyl)piperazin-1-yl]-1,3,5-triazin-2-yl}methylthio]-N-(1H-benzo[d]imidazol-2(3H)-ylidene)-4-chloro-5-methylbenzenesulfonamide]	17 ± 1 µM	27 ± 0.5 µM	20 ± 0.6 µM	–	–	–	42 ± 2 µM	–	–

Further lines, with some results ahead:

IC50 ([1]; Homo sapiens, HCT-116, 72 h)	IC50 ([2]; Homo sapiens, HeLa)	IC50 ([4]; Homo sapiens, MCF7, 72 h)	IC50 [1]	IC50 [2]	IC50 [4]	SMILES	IC50 [3]	selectivity ratio HaCaT/HCT-116 ([1]; ratio of IC50 values)	selectivity ratio HaCaT/HeLa ([2]; ratio of IC50 values)
16 ± 1 µM	28 ± 1 µM	46 ± 2 µM	–	–	–	Cc1cc(S(=O)(=O)N=c2[nH]c3ccccc3[nH]2)c(SCc2nc(N)nc(N3CCN(c4ccc(Cl)c(Cl)c4)CC3)n2)cc1Cl [Compound 25, 2-[{4-Amino-6-[4-(3,4-dichlorophenyl)piperazin-1-yl]-1,3,5-triazin-2-yl}metylthio]-N-(1H-benzo[d]imidazol-2(3H)-ylidene)-4-chloro-5-methylbenzenesulfonamide]	52 ± 2 µM	–	–
17 ± 0.5 µM	21 ± 0.4 µM	20 ± 1 µM	–	–	–	Cc1cc(S(=O)(=O)N=c2[nH]c3ccccc3[nH]2)c(SCc2nc(N)nc(N3CCN(c4ccc(F)c(Cl)c4)CC3)n2)cc1Cl [Compound 26, 2-[{4-Amino-6-[4-(3-chloro-4-fluorophenyl)piperazin-1-yl]-1,3,5-triazin-2-yl}methylthio]-N-(1H-benzo[d]imidazol-2(3H)-ylidene)-4-chloro-5-methylbenzenesulfonamide]	35 ± 1 µM	–	–
35 ± 1 µM	> 100 µM	> 100 µM	–	74 ± 1 µM	110 ± 3 µM	COc1ccc(N2CCN(c3nc(N)nc(CSc4cc(Cl)c(C)cc4S(=O)(=O)N=c4[nH]c5ccccc5[nH]4)n3)CC2)cc1 [Compound 27, 2-[{4-Amino-6-[4-(4-methoxyphenyl)piperazin-1-yl]-1,3,5-triazin-2-yl}metylthio]-N-(1H-benzo[d]imidazol-2(3H)-ylidene)-4-chloro-5-methylbenzenesulfonamide]	98 ± 2 µM	–	–
16 ± 1 µM	24 ± 1 µM	24 ± 1 µM	–	–	–	COc1ccccc1N1CCN(c2nc(N)nc(CSc3cc(Cl)c(C)cc3S(=O)(=O)N=c3[nH]c4ccccc4[nH]3)n2)CC1 [Compound 28, 2-[{4-Amino-6-[4-(2-methoxyphenyl)piperazin-1-yl]-1,3,5-triazin-2-yl}metylthio]-N-(1H-benzo[d]imidazol-2(3H)-ylidene)-4-chloro-5-methylbenzenesulfonamide]	35 ± 1 µM	–	–
17 ± 0.5 µM	18 ± 1 µM	24 ± 1 µM	–	–	–	Cc1cc(S(=O)(=O)N=c2[nH]c3ccccc3[nH]2)c(SCc2nc(N)nc(N3CCN(Cc4ccccc4)CC3)n2)cc1Cl [Compound 30, 2-{[4-Amino-6-(4-benzylpiperazin-1-yl)-1,3,5-triazin-2-yl]methylthio}-N-(1H-benzo[d]imidazol-2(3H)-ylidene)-4-chloro-5-methylbenzenesulfonamide]	36 ± 2 µM	–	–
18 ± 1 µM	39 ± 1 µM	46 ± 2 µM	–	–	–	Cc1cc(S(=O)(=O)N=c2[nH]c3ccccc3[nH]2)c(SCc2nc(N)nc(N3CCN(C(c4ccccc4)c4ccccc4)CC3)n2)cc1Cl [Compound 31]	54 ± 2 µM	–	–
19 ± 1 µM	30 ± 2 µM	35 ± 2 µM	–	–	–	CC1=NN(c2nc(N)nc(CSc3cc(Cl)c(C)cc3S(=O)(=O)N=c3[nH]c4ccc(F)cc4[nH]3)n2)C(C)(C)C1 [Compound 33, 2-{[4-Amino-6-(3,5,5-trimethyl-4,5-dihydro-1H-pyrazol-1-yl)-1,3,5-triazin-2-yl]metylthio}-4-chloro-N-(5-fluoro-1H-benzo[d]imidazol-2(3H)-ylidene)-5-methylbenzenesulfonamide]	48 ± 2 µM	–	–
37 ± 1 µM	39 ± 1 µM	40 ± 1 µM	–	–	–	Cc1cc(S(=O)(=O)N=c2[nH]c3ccc(F)cc3[nH]2)c(SCc2nc(N)nc(Nc3cccc(Cl)c3)n2)cc1Cl [Compound 35, 2-[{4-Amino-6-[(3-chlorophenyl)amino]-1,3,5-triazin-2-yl}methylthio]-4-chloro-N-(5-fluoro-1H-benzo[d]imidazol-2(3H)-ylidene)-5-methylbenzenesulfonamide]	52 ± 2 µM	–	–
18 ± 0.5 µM	29 ± 1 µM	37 ± 2 µM	–	–	–	Cc1cc(S(=O)(=O)N=c2[nH]c3ccc(F)cc3[nH]2)c(SCc2nc(N)nc(N(C)c3ccc(Cl)cc3)n2)cc1Cl [Compound 36, 2-[{4-Amino-6-[(4-chlorophenyl)(methyl)amino]-1,3,5-triazin-2-yl}metylthio]-4-chloro-N-(5-fluoro-1H-benzo[d]imidazol-2(3H)-ylidene)-5-methylbenzenesulfonamide]	49 ± 1 µM	–	–
17 ± 1 µM	20 ± 1 µM	27 ± 2 µM	–	–	–	Cc1cc(S(=O)(=O)N=c2[nH]c3ccc(F)cc3[nH]2)c(SCc2nc(N)nc(N3CCN(c4ccccc4)CC3)n2)cc1Cl [Compound 37, 2-[{[4-Amino-6-(4-phenylpiperazin-1-yl)-1,3,5-triazin-2-yl]methyl}thio]-4-chloro-N-(5-fluoro-1H-benzo[d]imidazol-2(3H)-ylidene)-5-methylbenzenesulfonamide]	39 ± 1 µM	–	–
